Entries after “also recorded” stand apart in the source; their conditions may differ.
Tests used:
Lyn = settings: Ba/F3 cells; cited from earlier work
AKT = settings: cited from earlier work
H3122 cells = assay: Long term experiments with EML4-ALK cell line; settings: for cytotoxic effect / cell proliferation: 8 days, PAC-1 2 μM, trametinib 5 nM
Experimental: H3122 cells were seeded at 10,000 cells per well in 6 well plates and allowed to adhere overnight. […] Media was refreshed every 3-4 days with new compounds. At the end of the incubation period, cells were fixed 10% trichloroacetic acid, stained with SRB, imaged using GelDoc XR, and absorbance at 510 nm read using SpectraMax M3 (Molecular Devices) plate reader.

caspase-3/-7 = assay: Caspase-3/-7 activity assay; format: cell-based, human
Experimental: H3122 cells were seeded at 4,000 cells per well and allowed to adhere overnight. […] 10 μM raptinal was used as the positive control throughout the experiment. […] Plates were pre-incubated at 37° C. for 30 minutes in the SpectraMax M3 (Molecular Devices) plate reader and then read for 30 minutes at 3-minute intervals. Slopes for each well were calculated and averaged over six technical replicates. Activity is normalized to the maximal and minimal activity observed within the assay.

MEK2 (MAP2K2) = MEK2 (MAP2K2) (Homo sapiens, UniProt P36507); settings: at 1 μM; cited from earlier work
Sequence of MEK2 (MAP2K2) (P36507 whole entry, species assumed): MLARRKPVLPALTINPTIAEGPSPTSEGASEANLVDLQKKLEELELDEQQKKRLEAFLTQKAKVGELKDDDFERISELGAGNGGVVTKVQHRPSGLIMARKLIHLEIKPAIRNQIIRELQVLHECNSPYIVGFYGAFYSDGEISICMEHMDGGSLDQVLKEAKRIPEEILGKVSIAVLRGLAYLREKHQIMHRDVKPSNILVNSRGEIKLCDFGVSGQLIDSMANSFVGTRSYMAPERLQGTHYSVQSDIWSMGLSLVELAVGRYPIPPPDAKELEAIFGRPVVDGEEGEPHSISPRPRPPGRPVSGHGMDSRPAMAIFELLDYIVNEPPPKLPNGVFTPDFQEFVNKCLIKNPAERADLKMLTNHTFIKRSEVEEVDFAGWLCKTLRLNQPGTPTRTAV

CaMKII = settings: cited from earlier work
CK2 = settings: cited from earlier work
PKCδ = PKCδ (Homo sapiens, UniProt Q05655); settings: cited from earlier work
Sequence of PKCδ (Q05655 whole entry): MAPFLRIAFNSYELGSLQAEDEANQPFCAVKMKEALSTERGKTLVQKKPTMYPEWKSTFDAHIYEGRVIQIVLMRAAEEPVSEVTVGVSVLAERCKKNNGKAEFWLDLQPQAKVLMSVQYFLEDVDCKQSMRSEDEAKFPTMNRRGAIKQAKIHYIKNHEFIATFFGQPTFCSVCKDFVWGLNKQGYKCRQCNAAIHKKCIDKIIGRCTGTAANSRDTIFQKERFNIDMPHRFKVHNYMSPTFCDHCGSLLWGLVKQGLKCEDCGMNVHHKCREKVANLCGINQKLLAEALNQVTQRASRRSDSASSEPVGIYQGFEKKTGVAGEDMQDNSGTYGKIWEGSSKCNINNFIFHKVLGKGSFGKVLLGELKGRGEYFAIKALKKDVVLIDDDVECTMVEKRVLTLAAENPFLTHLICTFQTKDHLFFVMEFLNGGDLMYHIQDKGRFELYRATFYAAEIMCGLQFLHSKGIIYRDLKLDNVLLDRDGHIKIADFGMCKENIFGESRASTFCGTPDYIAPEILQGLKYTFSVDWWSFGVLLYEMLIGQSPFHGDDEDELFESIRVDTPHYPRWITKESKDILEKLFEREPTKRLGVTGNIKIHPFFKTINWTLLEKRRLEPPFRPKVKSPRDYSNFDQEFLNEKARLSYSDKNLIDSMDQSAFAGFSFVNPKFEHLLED

Fyn = Fyn (Homo sapiens, UniProt P06241); settings: at 1 μM; cited from earlier work
Sequence of Fyn (P06241 whole entry, species assumed): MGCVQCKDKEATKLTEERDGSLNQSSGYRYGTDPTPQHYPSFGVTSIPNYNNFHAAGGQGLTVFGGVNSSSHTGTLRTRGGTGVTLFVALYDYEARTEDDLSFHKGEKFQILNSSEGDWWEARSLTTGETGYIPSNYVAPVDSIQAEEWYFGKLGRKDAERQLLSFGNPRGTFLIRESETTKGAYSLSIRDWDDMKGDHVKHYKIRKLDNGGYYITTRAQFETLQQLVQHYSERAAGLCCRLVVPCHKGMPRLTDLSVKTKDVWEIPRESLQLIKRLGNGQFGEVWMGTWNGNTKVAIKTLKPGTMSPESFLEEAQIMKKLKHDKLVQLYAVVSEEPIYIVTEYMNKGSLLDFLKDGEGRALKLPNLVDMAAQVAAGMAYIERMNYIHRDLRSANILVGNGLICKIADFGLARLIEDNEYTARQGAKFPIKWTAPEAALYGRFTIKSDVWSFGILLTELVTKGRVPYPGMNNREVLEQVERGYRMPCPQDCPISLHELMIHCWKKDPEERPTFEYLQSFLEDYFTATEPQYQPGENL

ERK1/2 (MAPK1) = ERK1/2 (MAPK1) (Homo sapiens, UniProt P28482); settings: cited from earlier work
Sequence of ERK1/2 (MAPK1) (P28482 2-360 limits assumed): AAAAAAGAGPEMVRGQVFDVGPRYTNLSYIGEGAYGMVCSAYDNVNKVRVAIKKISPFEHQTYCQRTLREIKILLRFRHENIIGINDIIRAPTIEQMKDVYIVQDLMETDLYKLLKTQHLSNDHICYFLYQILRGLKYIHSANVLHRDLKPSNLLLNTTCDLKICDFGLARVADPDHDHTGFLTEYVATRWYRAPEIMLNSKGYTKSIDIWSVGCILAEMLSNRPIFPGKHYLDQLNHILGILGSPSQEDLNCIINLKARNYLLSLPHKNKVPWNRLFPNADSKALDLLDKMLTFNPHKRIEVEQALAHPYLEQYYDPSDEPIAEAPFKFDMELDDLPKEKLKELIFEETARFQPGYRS

CDK1 = CDK1 (Homo sapiens, UniProt P06493); settings: at 1 μM; cited from earlier work
Sequence of CDK1 (P06493 whole entry, species assumed): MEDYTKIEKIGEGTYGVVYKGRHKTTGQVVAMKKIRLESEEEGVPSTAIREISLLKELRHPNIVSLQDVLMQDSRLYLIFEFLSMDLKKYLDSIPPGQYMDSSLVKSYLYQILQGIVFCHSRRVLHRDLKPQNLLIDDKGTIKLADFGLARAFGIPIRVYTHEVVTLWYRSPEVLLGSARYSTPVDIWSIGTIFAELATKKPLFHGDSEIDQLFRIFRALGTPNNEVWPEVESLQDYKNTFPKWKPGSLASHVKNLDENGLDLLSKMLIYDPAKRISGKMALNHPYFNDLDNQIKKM
Sequence of CDK1 (P14635 whole entry partner, species assumed): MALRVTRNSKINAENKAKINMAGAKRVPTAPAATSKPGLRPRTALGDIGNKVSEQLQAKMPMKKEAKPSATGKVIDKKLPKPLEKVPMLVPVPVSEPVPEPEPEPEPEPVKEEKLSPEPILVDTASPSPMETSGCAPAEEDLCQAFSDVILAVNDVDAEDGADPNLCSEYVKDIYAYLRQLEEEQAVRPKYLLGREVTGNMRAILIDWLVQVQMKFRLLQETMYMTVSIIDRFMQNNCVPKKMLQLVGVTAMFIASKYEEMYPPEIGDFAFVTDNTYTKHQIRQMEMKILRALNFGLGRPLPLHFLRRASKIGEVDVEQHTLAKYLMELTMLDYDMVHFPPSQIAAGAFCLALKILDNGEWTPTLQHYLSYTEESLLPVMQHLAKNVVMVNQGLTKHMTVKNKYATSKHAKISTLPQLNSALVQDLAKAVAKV

DYRK1A = DYRK1A (Homo sapiens, UniProt Q13627); settings: at 1 μM; cited from earlier work
PKCζ = PKCζ (Homo sapiens, UniProt Q05513); settings: cited from earlier work
Sequence of PKCζ (Q05513 whole entry): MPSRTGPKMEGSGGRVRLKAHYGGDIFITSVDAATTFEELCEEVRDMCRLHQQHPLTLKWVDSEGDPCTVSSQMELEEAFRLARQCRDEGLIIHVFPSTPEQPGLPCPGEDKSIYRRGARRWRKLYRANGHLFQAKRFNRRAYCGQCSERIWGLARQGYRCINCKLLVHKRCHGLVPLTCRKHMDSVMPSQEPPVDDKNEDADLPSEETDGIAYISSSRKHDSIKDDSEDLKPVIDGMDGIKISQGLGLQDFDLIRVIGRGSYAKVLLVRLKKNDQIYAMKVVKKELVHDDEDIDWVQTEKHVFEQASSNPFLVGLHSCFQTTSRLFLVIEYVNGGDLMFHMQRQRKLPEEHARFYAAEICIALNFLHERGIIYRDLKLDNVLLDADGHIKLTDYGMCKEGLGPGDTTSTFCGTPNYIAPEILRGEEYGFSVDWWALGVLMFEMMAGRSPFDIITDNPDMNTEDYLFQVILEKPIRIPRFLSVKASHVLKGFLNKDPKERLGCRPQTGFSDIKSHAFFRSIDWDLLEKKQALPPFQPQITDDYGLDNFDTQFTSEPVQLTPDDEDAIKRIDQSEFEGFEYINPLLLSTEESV

PKA = settings: cited from earlier work
H1975 cells = assay: Long term experiments with EGFR^T790M cell lines
Experimental: (§1) In 12 well plates, PC-9 GR or H1975 cells were seeded at 2,000 cells per well and allowed to adhere overnight.

PC-9 GR cells = assay: Long term experiments with EGFR^T790M cell lines
Experimental: as §1

[1] = system: BRAF^V600E melanoma, EGFR^T790M, and EML4-ALK NSCLCs; assay: Delay of acquired resistance, summary of long term experiments; format: cell-based, human; settings: added to the kinase inhibitor
Experimental: (§2) This assay was performed as described previously. Briefly, 100-250 cells were seeded and allowed to adhere overnight. […] Media was refreshed with new compounds added every 3-4 days.

MEK1 and MEK2 kinases = assay: Immunoblotting of procaspase-3, MEK1 and MEK2 levels; format: cell-based, human; settings: Q-VD-OPh 25 μM added concurrently; 48 hours; A375, PC-9 GR, H3122
Experimental: Cells were lysed using RIPA buffer containing phosphatase (BioVision) and protease inhibitor cocktail (Calbiochem). Protein concentration was determined using the BCA assay (Pierce). Cell lysates containing 8-20 μg of protein were loaded into each lane of 4-20% gradient gels (BioRad) and ran for SDS-PAGE. Proteins were transferred onto PDVF membrane (Millipore) for Western blot analysis. Blots were blocked with BSA for one hour followed by incubation with primary antibody overnight (manufacturer's recommended dilutions). Secondary antibody was incubated for one hour. Blots were then imaged with a ChemiDoc Touch after incubation with SuperSignal West Pico Solution following manufacturer's protocols.

[2] = system: A375, PC-9 GR, H3122, K-562 cells; assay: Q-VD-OPh protection by flow cytometry; format: cell-based, human; settings: Q-VD-OPh 25 μM added concurrently; 48 hours
Experimental: A375 (BRAF^V600E) cells were seeded with 70,000 cells/well in 12-well plates and allowed to adhere overnight. The next day, indicated concentrations of PAC-1, vemurafenib, trametinib, and/or Q-VD-OPh were added and cells were incubated at 37° C. for 48 hours. […] The next day, they were incubated with PAC-1, ceritinib, and/or Q-VD-OPh for 48 hours. K-562 cells were seeded with 35,000 cells/well in 12-well plates.

A375 cells = assay: Long term experiments in BRAF^V600E cell lines; format: cell-based, human; settings: continuous treatment
Experimental: as §2

PC-9 GR and H1975 cells = assay: Cell viability assay (SRB); format: cell-based, human; settings: 5-day incubation
Experimental: Final concentration of DMSO in each well is 0.5%. At the end of 5 days, viability was assessed by the sulforhodamine B (SRB) assay sulforhodamine B (SRB) assay. Briefly, 100 μL of 10% trichloroacetic acid (TCA) was added in each well and the plate was incubated for at least 1 hour at 4° C. After the 4° C. incubation, the plate was washed with water and allowed to dry for at least 1 hour at room temperature. 100 μL of SRB dye (1% w/v) was added to each well and incubated for 30 minutes at room temperature. At the end of the 30 minutes incubation, the plate was washed with 1% acetic acid solution and allowed to dry at room temperature. Finally, 200 μL of Tris solution (pH>10) was added to each well to dissolve the SRB dye. The absorbance of each well was read with a SpectraMax M3 plate reader (Molecular Devices) at 510 nm.

[3] = H1975 NSCLC cells, PAC-1 5 μM, up to 48 h
[4] = PC-9 GR NSCLC cells, PAC-1 5 μM, up to 48 h

## Cc1cc(Nc2ncc(Cl)c(Nc3ccccc3S(=O)(=O)C(C)C)n2)c(OC(C)C)cc1C1CCNCC1 [Ceritinib]
Lyn
  IC50: 2.31 µM
AKT
  IC50: > 10 µM
H3122 cells
  cytotoxic effect / cell proliferation: effective in inhibiting cell proliferation
H3122 cells; 20 days of treatment
  resistant clones: Resistant clones were visible
H3122 cells; 32 days of treatment
  resistant clones: dramatic increase

## Cc1ccc(NC(=O)c2ccc(CN3CCN(C)CC3)cc2)cc1Nc1nccc(-c2cccnc2)n1 [Imatinib]
caspase-3/-7; K-562 cells, PAC-1 7.5 μM
  caspase-3 activity: negligible single-agent activity
MEK2 (MAP2K2)
  % Inhibition of MEK2 (MAP2K2): 5.9% at 1 μM
CaMKII
  Inhibition of CaMKII (in words): Not observed
CK2
  Inhibition of CK2 (in words): Not observed
PKCδ
  Inhibition of PKCδ (in words): Not observed
Fyn
  % Inhibition of Fyn: 29.6% at 1 μM
ERK1/2 (MAPK1)
  Inhibition of ERK1/2 (MAPK1) (in words): Not observed
CDK1
  % Inhibition of CDK1: 1.8% at 1 μM
DYRK1A
  % Inhibition of DYRK1A: 2.2% at 1 μM
PKCζ
  Inhibition of PKCζ (in words): Not observed
PKA
  Inhibition of PKA (in words): Not observed

## C=CC(=O)Nc1cc(Nc2nccc(-c3cn(C)c4ccccc34)n2)c(OC)cc1N(C)CCN(C)C [Osimertinib]
caspase-3/-7; [3]
  caspase-3 activity: Negligible increases
caspase-3/-7; [4]
  caspase-3 activity: Negligible increases
H1975 cells
  cytotoxic effect / cell proliferation: very effective
  resistant clones: clearly visible
PC-9 GR cells
  resistant clones: clearly visible; also recorded: resistant clones were visible; also recorded: dramatic increase
PC-9 GR cells; 8 days, PAC-1 2 μM, osimertinib 30 nM, trametinib 5 nM
  cytotoxic effect / cell proliferation: very effective; also recorded: effective in inhibiting cell proliferation

## C=CCc1cccc(/C=N/NC(=O)CN2CCN(Cc3ccccc3)CC2)c1O [PAC-1]
caspase-3/-7; [3]
  caspase-3 activity: Negligible increases
caspase-3/-7; K-562 cells, PAC-1 7.5 μM
  caspase-3 activity: negligible single-agent activity
caspase-3/-7; [4]
  caspase-3 activity: Negligible increases
[1]
  concentration effective in delaying acquired resistance to vemurafenib, osimertinib, and ceritinib: 1 to 2 µM

## CC(C)[C@H](NC(=O)c1ccc2ccccc2n1)C(=O)N[C@@H](CC(=O)O)C(=O)COc1c(F)cccc1F [Q-VD-OPh]
MEK1 and MEK2 kinases
  MEK1/2 cleavage in cells treated with PAC-1/drug combinations: attenuated
[2]
  apoptotic cell death in cells treated with PAC-1/drug combinations: protection

## CCCS(=O)(=O)Nc1ccc(F)c(C(=O)c2c[nH]c3ncc(-c4ccc(Cl)cc4)cc23)c1F [Vemurafenib]
A375 cells
  time at which resistant colonies were first seen: 20 days

## COc1cc2ncnc(Nc3ccc(F)c(Cl)c3)c2cc1OCCCN1CCOCC1 [gefitinib]
PC-9 GR and H1975 cells
  activity in PC-9 GR and H1975 cells (FIG. 7A): inactive

## CC(=O)Nc1cccc(-n2c(=O)n(C3CC3)c(=O)c3c(Nc4ccc(I)cc4F)n(C)c(=O)c(C)c32)c1 [trametinib]
H3122 cells
  cytotoxic effect / cell proliferation: minimal cytotoxic effect

From patent publication US12168006B2, “Cancer therapy by degrading dual MEK signaling” (The Board of Trustees of the University of Illinois, priority 2017, dated 2024)
